Laboratory results: patent US7070983B2, “Mutant Pseudomonas putida strains and methods of use thereof” (priority 2003, dated 2006)

Assays:
Format in all cases: cell-based, Pseudomonas putida
[1] = tested on: 4HBA-tolerant Str, Gen and Rif mutants of P. putida KH146-2; details: Str mutants and Rif mutants tested; in words
Method: (§1) Pseudomonas putida KH146-2 was originally isolated from soil for the capability of growing in the presence of 4-hydroxybenzoate (Chen et al., ((1998) Res Communs Biochem and Cell & Mol Biol 2: 253–274)). HBM medium consists of 50 mM sodium potassium phosphate buffer (pH6.8), 0.1% (NH4)2SO4 and Hutner's base. Hutner's base cotained (per liter) nitrilotriacetic acid, 200 mg; CaCl2.2H2O, 67 mg; (NH4)6Mo7O24.4H2O, 185 μg; MgSO4, 289 mg; EDTA, 2.5 mg; ZnSO4.7H2O, 11 mg; FeSO4.7H2O, 7 mg; MnSO4.H2O, 1.5 mg; CuSO4.5H2O, 390 μg; Co(NO3)2.6H2O, 250 μg, and Na2B4O7.10H2O, 180 μg. LB medium contains 1% tryptone, 0.5% yeast extract, and 1% NaCl (adjusted pH 6.8). LBH medium contains 1% tryptone and 0.5% yeast extract in HBM medium. The bacteria were grown at 30° C. in a shaker at 200 rpm. For tolerance tests, HBM or LBH agar plates containing serially increasing concentrations of an organic chemical were employed. Routinely, 20 to 40 bacterial strains were spot-transplanted with the aid of tooth pick on an agar plate, followed by incubation at 30° C. for 3 days.
Using several strains randomly chosen as representatives of 4HBA-tolerant mutants, we examined the tolerance level to various organic compounds. […] Tolerance levels to other organic compounds were also examined.

[2] = tested on: P. putida wild-type KH146-2; details: LBH medium, 30° C., 3 days
Method: as §1

[3] = tested on: P. putida strain no. 12 (Gen mutant); assay: Tolerance test (MIC) on agar plates; details: LBH medium
Method: as §1

[4] = tested on: P. putida strain no. 14 (Rif mutant); assay: Tolerance test (MIC) on agar plates; details: LBH medium
Method: as §1

[5] = tested on: P. putida strain no. 15 (Rif mutant); assay: Tolerance test (MIC) on agar plates; details: LBH medium
Method: as §1

[6] = tested on: P. putida strain no. 17 (Rif mutant); assay: Tolerance test (MIC) on agar plates; details: LBH medium
Method: as §1

[7] = tested on: P. putida strain no. 3 (Str mutant); assay: Tolerance test (MIC) on agar plates; details: LBH medium
Method: as §1

[8] = tested on: P. putida strain no. 9 (Str mutant); assay: Tolerance test (MIC) on agar plates; details: LBH medium
Method: as §1

KH146-2 = assay: Organic solvent tolerance, growth in saturated LBH medium
Str and Rif mutants = assay: as above
[9] = LBH medium containing saturated concentrations of m-xylene
[10] = 3% MeOH-LBH medium saturated with toluene

## O=C(O)c1ccccc1I [2-iodobenzoate]
[1]
  Tolerance of mutants relative to wild-type: increased tolerance

## O=C(O)c1ccccc1Cl [2CB, 2-chlorobenzoate]
[2]
  Tolerance (MIC): 1.5 ± 0.2%
[3]
  Tolerance (MIC): 1.9 ± 0.3%
[4]
  Tolerance (MIC): 1.9 ± 0.2%
[5]
  Tolerance (MIC): 2.0 ± 0.2%
[6]
  Tolerance (MIC): 2.1 ± 0.2%
[7]
  Tolerance (MIC): 1.9 ± 0.2%
[8]
  Tolerance (MIC): 1.7 ± 0.2%
[1]
  Tolerance of mutants relative to wild-type: modest increment of tolerance

## O=C(O)c1ccccc1O [2HBA, 2-hydroxybenzoate]
[2]
  Tolerance (MIC): 0.8 ± 0.1%
[3]
  Tolerance (MIC): 0.8 ± 0.1%
[4]
  Tolerance (MIC): 0.8 ± 0.1%
[5]
  Tolerance (MIC): 0.8 ± 0.1%
[6]
  Tolerance (MIC): 0.7 ± 0.1%
[7]
  Tolerance (MIC): 0.9 ± 0.1%
[8]
  Tolerance (MIC): 0.8 ± 0.1%
[1]
  Tolerance of mutants relative to wild-type: slight or no increase of tolerance

## O=C(O)c1ccc(O)c(Br)c1 [3-bromo-4-hydroxybenzoate]
[1]
  Tolerance of mutants relative to wild-type: increased tolerance

## O=C(O)c1cccc(I)c1 [3-iodobenzoate]
[1]
  Tolerance of mutants relative to wild-type: increased tolerance

## O=C(O)c1cccc(Cl)c1 [3CB, 3-chlorobenzoate]
[2]
  Tolerance (MIC): 0.9 ± 0.1%
[3]
  Tolerance (MIC): 1.1 ± 0.2%
[4]
  Tolerance (MIC): 1.1 ± 0.2%
[5]
  Tolerance (MIC): 1.3 ± 0.2%
[6]
  Tolerance (MIC): 1.2 ± 0.1%
[7]
  Tolerance (MIC): 1.1 ± 0.2%
[8]
  Tolerance (MIC): 1.0 ± 0.2%
[1]
  Tolerance of mutants relative to wild-type: slight or no increase of tolerance

## O=C(O)c1cccc(O)c1 [3HBA, 3-hydroxybenzoate]
[2]
  Tolerance (MIC): 1.4 ± 0.1%
[3]
  Tolerance (MIC): 1.9 ± 0.2%
[4]
  Tolerance (MIC): 1.9 ± 0.1%
[5]
  Tolerance (MIC): 1.9 ± 0.2%
[6]
  Tolerance (MIC): 1.8 ± 0.3%
[7]
  Tolerance (MIC): 1.8 ± 0.2%
[8]
  Tolerance (MIC): 1.8 ± 0.1%
[1]
  Tolerance of mutants relative to wild-type: modest increment of tolerance

## O=C(O)c1ccc(Cl)cc1O [4-chlorosalicylate]
[1]
  Tolerance of mutants relative to wild-type: increased tolerance

## O=C(O)c1ccc(F)cc1 [4-fluorobenzoate]
[1]
  Tolerance of mutants relative to wild-type: increased tolerance

## O=C(O)c1cc(Cl)ccc1O [5-chlorosalicylate]
[1]
  Tolerance of mutants relative to wild-type: increased tolerance

## O=C(O)c1ccccc1 [BA, benzoic acid]
[2]
  Tolerance (MIC): 0.8 ± 0.2%
[3]
  Tolerance (MIC): 1.0 ± 0.1%
[4]
  Tolerance (MIC): 1.1 ± 0.1%
[5]
  Tolerance (MIC): 1.0 ± 0.1%
[6]
  Tolerance (MIC): 1.1 ± 0.1%
[7]
  Tolerance (MIC): 1.0 ± 0.1%
[8]
  Tolerance (MIC): 0.9 ± 0.1%
[1]
  Tolerance of mutants relative to wild-type: slight or no increase of tolerance

## CC(C)C(=O)O [isobutyrate]
[1]
  Tolerance of mutants relative to wild-type: increased tolerance

## CC(C)CC(=O)O [isovalerate]
[1]
  Tolerance of mutants relative to wild-type: increased tolerance

## Cc1cccc(C)c1 [m-xylene]
KH146-2; [9]
  growth: inhibited almost completely
Str and Rif mutants; [9]
  growth: grew

## Cc1ccccc1 [toluene]
KH146-2; [10]
  growth: somewhat retarded
Str and Rif mutants; [10]
  growth: grew normally

## isonicotinate
[1]
  Tolerance of mutants relative to wild-type: increased tolerance

## norvalerate
[1]
  Tolerance of mutants relative to wild-type: increased tolerance
